Measured values: a compilation of properties of binary mixtures (doi:10.1016/j.molliq.2017.04.129)

Test: xn = mol fraction of the nth substance listed
Conditions: 100 kPa

COCCOCCO + CCCC[n+]1ccn(C)c1.O=S(=O)([O-])C(F)(F)F
speed of sound [m/s]
Conditions | x2 = 0 | x2 = 0.1 | x2 = 0.2056 | x2 = 0.3064 | x2 = 0.3986 | x2 = 0.4904 | x2 = 0.5981 | x2 = 0.6945 | x2 = 0.7795 | x2 = 0.9015
298.15 K | 1415.8 | 1423.6 | 1420.5 | 1415.5 | 1410.7 | 1406.3 | – | 1398.8 | 1396.8 | 1394.5
303.15 K | – | 1408.2 | 1406.1 | 1401.6 | 1397.5 | – | 1390 | 1386.9 | – | 1383.3
308.15 K | – | 1392.4 | 1391.5 | 1387.8 | 1384.4 | 1381 | 1378 | 1375.4 | 1374 | 1372
313.15 K | 1366.4 | 1376.8 | 1376.9 | – | 1371.3 | 1368.4 | – | – | 1362.6 | 1360.9
318.15 K | – | – | – | – | – | 1356 | 1354 | 1352.2 | 1351.2 | 1349.9
323.15 K | 1333.4 | 1345.6 | 1348 | 1346.9 | 1345.5 | 1343.6 | – | 1340.7 | – | 1338.9

CCCC[n+]1ccn(C)c1.O=S(=O)([O-])C(F)(F)F + COCCOCCO
x1 = 1
Conditions | speed of sound [m/s]
298.15 K | 1392.8
308.15 K | 1370.6
313.15 K | 1359.6
